Measurements published in patent US20140094424A1, “MICROBICIDAL COMPOSITIONS AND METHODS OF PRODUCTION USE THEREOF” (priority 2011, published 2014).

Assays:
[1] = tested on: Pseudomonas fluorescens (D); assay: MBC (minimum bactericidal concentration) test in Wash NEXT reagent; assay type: cell-based
[2] = tested on: Penicillium notatum-KMO (R); assay: as above; assay type: cell-based; set-up: key to MBC test growth score: number = actual colony count; + full mat, − no growth
Description: The stock organisms were thawed and subbed prior to beginning the MBC test. Molds were subbed to SDA plates one week before, and the bacteria were subbed to TAT agar plates 24 hours prior to the start of the test. All plates were incubated at 32 degrees C.
For the molds, each organism was inoculated into 40 ml sterile saline in a centrifuge tube to create a density of MacFarland #5. Two serial dilutions of 1:100 were then made, resulting in 10^−2 and 10^−4 concentrations. Each dilution was vortexed before it was sampled, and sterile Eppendorf pipette tips were used to make each transfer. The 10^−4 dilution was spiral plated to yield the initial inoculum concentration.
MBC trays were set up with the prepared test reagent. Using a Matrix pipettor, 100 μl aliquots of reagent were distributed into the wells, diluting the amount of preservative from 100% to 10% increments, using unpreserved reagent as the diluent. In one row, 100% non-preserved reagent acted as a positive control and served as a benchmark for a full mat of growth. In well #12H, 100 μl unpreserved reagent was pipetted, and this well was not inoculated with organisms, as it served as the negative control. Once all of the trays were prepared, the prepared bacteria/mold suspensions were poured into the MBC inoculating trays. These were placed onto the reagent trays, and 0.01 ml inoculum was introduced into the 100 μl of reagent in each well.
This was done by dipping a sterile cotton swab into each well, and absorbing all of the liquid in the well. The swab was rolled onto a TAT agar plate ensuring that the entire swab touches the agar. Plates ware incubated at 32 degrees C. for 48 hours to 7 days, depending on the organism. Observations for growth were performed by a scoring matrix using + for a full mat, +/− for some growth, a numerical value for an actual colony count, and—for no growth.
Below are tables that contain the data obtained in Example 1. The MBC test is scored by (+) indicating a full grown mat of organisms, equivalent to the organisms in the unpreserved reagent. (+/−) indicates there is some kill evident disturbing that mat or bringing the quantities down to an almost countable level. An actual number is the actual number of colonies growing at that concentration of preservative. (−) indicates no growth found. The MBC trays were stored at room temperature for the entire test.
The materials and methods and analysis of the MBC test were the same as in Example 1.

## Cc1cc(NS(=O)(=O)c2ccc(N)cc2)no1 [Sulfamethoxazole, sulfamethoxazole]
[1]; 10% preservative, 8 hour
  MBC test growth score: +
[1]; 10% preservative, 24 hour
  MBC test growth score: +
[1]; 10% preservative, 48 hour
  MBC test growth score: +/−
[1]; 10% preservative, 72 hour
  MBC test growth score: +/−
[1]; 20% preservative, 8 hour
  MBC test growth score: +
[1]; 20% preservative, 24 hour
  MBC test growth score: +
[1]; 20% preservative, 48 hour
  MBC test growth score: +/−
[1]; 20% preservative, 72 hour
  MBC test growth score: +/−
[1]; 30% preservative, 8 hour
  MBC test growth score: +
[1]; 30% preservative, 24 hour
  MBC test growth score: +
[1]; 30% preservative, 48 hour
  MBC test growth score: +
[1]; 30% preservative, 72 hour
  MBC test growth score: +/−
[1]; 40% preservative, 8 hour
  MBC test growth score: +
[1]; 40% preservative, 24 hour
  MBC test growth score: +
[1]; 40% preservative, 48 hour
  MBC test growth score: +
[1]; 40% preservative, 72 hour
  MBC test growth score: +/−
[1]; 50% preservative, 8 hour
  MBC test growth score: +
[1]; 50% preservative, 24 hour
  MBC test growth score: +
[1]; 50% preservative, 48 hour
  MBC test growth score: +
[1]; 50% preservative, 72 hour
  MBC test growth score: +/−
[1]; 60% preservative, 8 hour
  MBC test growth score: +
[1]; 60% preservative, 24 hour
  MBC test growth score: +
[1]; 60% preservative, 48 hour
  MBC test growth score: +
[1]; 60% preservative, 72 hour
  MBC test growth score: +/−
[1]; 70% preservative, 8 hour
  MBC test growth score: +
[1]; 70% preservative, 24 hour
  MBC test growth score: +
[1]; 70% preservative, 48 hour
  MBC test growth score: +
[1]; 70% preservative, 72 hour
  MBC test growth score: +/−
[1]; 80% preservative, 8 hour
  MBC test growth score: +
[1]; 80% preservative, 24 hour
  MBC test growth score: +
[1]; 80% preservative, 48 hour
  MBC test growth score: +
[1]; 80% preservative, 72 hour
  MBC test growth score: +/−
[1]; 90% preservative, 8 hour
  MBC test growth score: +
[1]; 90% preservative, 24 hour
  MBC test growth score: +
[1]; 90% preservative, 48 hour
  MBC test growth score: +
[1]; 90% preservative, 72 hour
  MBC test growth score: +/−
[1]; 100% preservative, 8 hour
  MBC test growth score: +
[1]; 100% preservative, 24 hour
  MBC test growth score: +
[1]; 100% preservative, 48 hour
  MBC test growth score: +
[1]; 100% preservative, 72 hour
  MBC test growth score: +/−
[2]; 10% preservative, 8 hour
  MBC test growth score: +
[2]; 10% preservative, 24 hour
  MBC test growth score: +
[2]; 10% preservative, 48 hour
  MBC test growth score: +/−
[2]; 10% preservative, 72 hour
  MBC test growth score: +
[2]; 10% preservative, 7 day
  MBC test growth score: +
[2]; 10% preservative, 14 day
  MBC test growth score: +/−
[2]; 20% preservative, 8 hour
  MBC test growth score: +
[2]; 20% preservative, 24 hour
  MBC test growth score: +
[2]; 20% preservative, 48 hour
  MBC test growth score: +/−
[2]; 20% preservative, 72 hour
  MBC test growth score: +/−
[2]; 20% preservative, 7 day
  MBC test growth score: +/−
[2]; 20% preservative, 14 day
  MBC test growth score: 31
[2]; 30% preservative, 8 hour
  MBC test growth score: +
[2]; 30% preservative, 24 hour
  MBC test growth score: +
[2]; 30% preservative, 48 hour
  MBC test growth score: +/−
[2]; 30% preservative, 72 hour
  MBC test growth score: +/−
[2]; 30% preservative, 7 day
  MBC test growth score: +/−
[2]; 30% preservative, 14 day
  MBC test growth score: 28
[2]; 40% preservative, 8 hour
  MBC test growth score: +
[2]; 40% preservative, 24 hour
  MBC test growth score: +
[2]; 40% preservative, 48 hour
  MBC test growth score: +/−
[2]; 40% preservative, 72 hour
  MBC test growth score: +/−
[2]; 40% preservative, 7 day
  MBC test growth score: +/−
[2]; 40% preservative, 14 day
  MBC test growth score: 25
[2]; 50% preservative, 8 hour
  MBC test growth score: +
[2]; 50% preservative, 24 hour
  MBC test growth score: +
[2]; 50% preservative, 48 hour
  MBC test growth score: +/−
[2]; 50% preservative, 72 hour
  MBC test growth score: +/−
[2]; 50% preservative, 7 day
  MBC test growth score: +/−
[2]; 50% preservative, 14 day
  MBC test growth score: 18
[2]; 60% preservative, 8 hour
  MBC test growth score: +
[2]; 60% preservative, 24 hour
  MBC test growth score: +
[2]; 60% preservative, 48 hour
  MBC test growth score: +/−
[2]; 60% preservative, 72 hour
  MBC test growth score: +/−
[2]; 60% preservative, 7 day
  MBC test growth score: +/−
[2]; 70% preservative, 8 hour
  MBC test growth score: +
[2]; 70% preservative, 24 hour
  MBC test growth score: +
[2]; 70% preservative, 48 hour
  MBC test growth score: +/−
[2]; 70% preservative, 72 hour
  MBC test growth score: 18
[2]; 70% preservative, 7 day
  MBC test growth score: 9
[2]; 70% preservative, 14 day
  MBC test growth score: 10
[2]; 80% preservative, 8 hour
  MBC test growth score: +
[2]; 80% preservative, 24 hour
  MBC test growth score: +
[2]; 80% preservative, 48 hour
  MBC test growth score: +/−
[2]; 80% preservative, 7 day
  MBC test growth score: 8
[2]; 80% preservative, 14 day
  MBC test growth score: 6
[2]; 90% preservative, 8 hour
  MBC test growth score: +
[2]; 90% preservative, 24 hour
  MBC test growth score: +
[2]; 90% preservative, 48 hour
  MBC test growth score: +/−
[2]; 90% preservative, 72 hour
  MBC test growth score: 10
[2]; 90% preservative, 7 day
  MBC test growth score: 7
[2]; 90% preservative, 14 day
  MBC test growth score: 3
[2]; 100% preservative, 8 hour
  MBC test growth score: +
[2]; 100% preservative, 24 hour
  MBC test growth score: +
[2]; 100% preservative, 48 hour
  MBC test growth score: +/−
[2]; 100% preservative, 72 hour
  MBC test growth score: 7
[2]; 100% preservative, 7 day
  MBC test growth score: 4
[2]; 100% preservative, 14 day
  MBC test growth score: 2
